Measured values as given in patent US9546158B2, “2,5-substituted pyrimidines” (Grünenthal GmbH, priority 2014, dated 2017).

What was measured:
human PDE4B1 [1] = molecular target: T1, human PDE4B1 (Homo sapiens, UniProt Q07343); experiment: TR-FRET assay using the LANCE Ultra cAMP kit to determine the activity of hPDE4B1; format: biochemical; details: test substrate concentration of 10 μM, read-out: Inhibition of PDE4B, Inhibition in %
T1 construct: host or cells: Sf9 cells
Source text: TR-FRET Assay Using the LANCE® Ultra cAMP Kit to Determine the Activity of hPDE4B1
The effects of the compounds on the activity of the human PDE4B1 was quantified by measuring the production of 5′AMP from cAMP using a human recombinant enzyme expressed in Sf9 cells and the LANCE® Ultra cAMP kit, a TR-FRET detection method from PerkinElmer. The human PDE4B1 enzyme was purchased from SignalChem Lifesciences (Catalog #P92-31BG, Lot #H296-2).
The test compound, reference compound or water (control) was mixed with the enzyme (0.96 U) in a reaction buffer containing 50 mM Tris-HCl, 50 mM MgCl2 and 5 mM DTT (pH 8.5). Thereafter, the reaction was initiated by addition of 500 nM cAMP (substrate) and the mixture was incubated for 30 minutes at room temperature. For control basal measurements, the enzyme was omitted from the reaction mixture. After 30 minutes, the reaction was stopped and diluted by a factor of 100 with the reaction buffer supplemented with 500 μM IBMX. The fluorescence donor (europium chelate-labeled cAMP) and the fluorescence acceptor (anti-cAMP antibody labeled with the ULight™ dye) were then added together with 500 μM IBMX to a 10 μl aliquot. After 60 minutes, the fluorescence transfer corresponding to the amount of residual cAMP was measured at λex=337 nm, λem=620 nm and λem=665 nm using a microplate reader (PHERAstar, BMG). The enzyme activity was determined by dividing the signal measured at 665 nm by that measured at 620 nm (ratio) multiplied by 10000. The results were expressed as percent inhibition of the control enzyme activity. IC50 values (IC50=concentration causing a half-maximal inhibition of control specific activity) were derived from dose response measurements with ten different concentrations (n=3; N=1-3).

human PDE4B1 [2] = molecular target: T1, human PDE4B1; experiment: cAMP HTRF assay to determine the activity of hPDE4B1; format: biochemical; details: test substrate concentration of 1 μM, read-out: Inhibition of PDE4B, Inhibition in %
Method: cAMP HTRF® Assay to Determine the Activity of hPDE4B1
The inhibiting effect of the compounds on the enzyme activity of human PDE4B1 was measured by the quantification of 5′-adenosine monophosphate (5′-AMP), which is formed from 3′,5′-cyclic adenosine monophosphate (cAMP). Human recombinant enzyme, expressed in Sf9 cells, and the HTRF (homogeneous time-resolved fluorescence) detection method were used in the assay.
The test compound or water (control) was mixed with the human recombinant PDE4B1 enzyme (4.8 U) in a buffer consisting of 44.4 mM tris-HCl, 5.28 mM MgCl2, 2.64 mM DTT and 0.044% Tween 20 (pH 7.8). After adding the cAMP enzyme substrate (final concentration 40 nM), the mixture was incubated for 30 minutes at room temperature. Then a fluorescence acceptor (Dye2 marked with cAMP), a fluorescence donor (anti-cAMP antibody marked with a europium cryptate) and the non-specific phosphodiesterase inhibitor IBMX (3-isobutyl-1-methylxanthine; final concentration 1 mM) were added. After 60 minutes the fluorescence transfer, which correlates with the amount of remaining cAMP, was measured with a microplate reader (Rubystar, BMG) at λex=337 nm, λem=620 nm and λem=665 nm. The enzyme activity was calculated from the quotient formed from the measured signal at 665 nm and that at 620 nm. The result was expressed as the percentage inhibition of enzyme activity of the control (without PDE4 inhibitor). The enzyme was omitted for measurement of the basal control. IC50 values (IC50=concentration causing a half-maximal inhibition of control specific activity) were derived from dose response measurements with eight different concentrations (n=2; N=1-3).
Literature: N. Saldou et al., Comparison of recombinant human PDE4 isoforms: interaction with substrate and inhibitors, Cell. Signal. Vol. 10, No. 6, 427-440, 1998

T1 sequence (Q07343 whole entry): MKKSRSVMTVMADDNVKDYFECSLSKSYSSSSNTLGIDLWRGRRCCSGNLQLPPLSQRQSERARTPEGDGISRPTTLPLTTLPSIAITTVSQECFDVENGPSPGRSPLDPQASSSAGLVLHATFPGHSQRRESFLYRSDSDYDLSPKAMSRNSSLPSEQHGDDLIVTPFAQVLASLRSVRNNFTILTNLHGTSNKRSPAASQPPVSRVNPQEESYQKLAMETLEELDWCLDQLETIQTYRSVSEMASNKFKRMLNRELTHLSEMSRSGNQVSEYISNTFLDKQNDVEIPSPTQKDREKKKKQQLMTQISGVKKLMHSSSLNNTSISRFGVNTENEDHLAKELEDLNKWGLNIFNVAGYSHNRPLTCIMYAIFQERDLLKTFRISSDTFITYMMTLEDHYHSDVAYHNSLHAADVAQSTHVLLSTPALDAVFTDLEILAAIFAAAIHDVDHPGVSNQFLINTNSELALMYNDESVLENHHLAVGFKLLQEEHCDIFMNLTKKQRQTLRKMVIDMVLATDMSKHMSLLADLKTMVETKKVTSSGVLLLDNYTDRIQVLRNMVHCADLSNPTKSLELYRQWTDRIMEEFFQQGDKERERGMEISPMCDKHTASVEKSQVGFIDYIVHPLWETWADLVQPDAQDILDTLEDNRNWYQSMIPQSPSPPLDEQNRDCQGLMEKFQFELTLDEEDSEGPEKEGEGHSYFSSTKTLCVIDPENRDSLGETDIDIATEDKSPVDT

Structure (SMILES)	melting point [°C]	inhibition at 10 µM (human PDE4B1 [1]) [%]	inhibition at 1 µM (human PDE4B1 [2]) [%]
CCOc1ccc(F)c(-c2cnc(-n3nc(C4CC4)c4ccc(C(=O)N(C)CC(N)=O)cc43)nc2)c1 [Compound No. 50, N-(2-Amino-2-oxoethyl)-3-cyclopropyl-1-(5-(5-ethoxy-2-fluorophenyl)pyrimidin-2-yl)-N-methyl-1H-indazole-6-carboxamide]	228 to 231	95	
Cc1nn(-c2ncc(-c3cc(C(C)O)ccc3F)cn2)c2cc(C(=O)N(C)CC(N)=O)ccc12 (stereo not drawn) [Compound No. 61, N-(2-Amino-2-oxoethyl)-1-(5-(2-fluoro-5-(1-hydroxyethyl)phenyl)pyrimidin-2-yl)-N,3-dimethyl-1H-indazole-6-carboxamide]	191 to 195	103	
Cc1nn(-c2ncc(-c3cc(C(C)(C)O)ccc3F)cn2)c2cc(C(=O)N(C)CC(N)=O)ccc12 [Compound No. 62, N-(2-Amino-2-oxoethyl)-1-(5-(2-fluoro-5-(2-hydroxypropan-2-yl)phenyl)pyrimidin-2-yl)-N,3-dimethyl-1H-indazole-6-carboxamide]	187 to 190	108	
Cc1nn(-c2ncc(-c3cc([S+](C)[O-])ccc3F)cn2)c2cc(C(=O)N(C)CC(N)=O)ccc12 (stereo not drawn) [Compound No. 64, N-(2-Amino-2-oxoethyl)-1-(5-(2-fluoro-5-(methylsulfinyl)phenyl)pyrimidin-2-yl)-N,3-dimethyl-1H-indazole-6-carboxamide]	164 to 168	42	
CC(O)c1ccc(F)c(-c2cnc(-n3nc(C4CC4)c4ccc(C(=O)N(C)CC(N)=O)cc43)nc2)c1 (stereo not drawn) [Compound No. 53, N-(2-Amino-2-oxoethyl)-3-cyclopropyl-1-(5-(2-fluoro-5-(1-hydroxyethyl)phenyl)pyrimidin-2-yl)-N-methyl-1H-indazole-6-carboxamide]	248 to 252	101	
CN(CC(N)=O)C(=O)c1ccc2c(C3CC3)nn(-c3ncc(-c4cc(S(C)(=O)=O)ccc4F)cn3)c2c1 [Compound No. 59, N-(2-Amino-2-oxoethyl)-3-cyclopropyl-1-(5-(2-fluoro-5-(methylsulfonyl)phenyl)pyrimidin-2-yl)-N-methyl-1H-indazole-6-carboxamide]	311 to 315	96	
Cc1nn(-c2ncc(-c3cc(S(C)(=O)=O)ccc3F)cn2)c2cc(C(=O)N(C)CC(N)=O)ccc12 [Compound No. 63, N-(2-Amino-2-oxoethyl)-1-(5-(2-fluoro-5-(methylsulfonyl)phenyl)pyrimidin-2-yl)-N,3-dimethyl-1H-indazole-6-carboxamide]	255 to 259	75	
CCOc1ccc(F)c(-c2cnc(-n3nc(C)c4ccc(C(=O)N(C)CC(N)=O)cc43)nc2)c1 [Compound No. 60, N-(2-Amino-2-oxoethyl)-1-(5-(5-ethoxy-2-fluorophenyl)pyrimidin-2-yl)-N,3-dimethyl-1H-indazole-6-carboxamide]	254 to 257	100	

Second part, the molecule after the results:

melting point [°C]	inhibition at 10 µM (human PDE4B1 [1]) [%]	inhibition at 1 µM (human PDE4B1 [2]) [%]	Structure (SMILES)
177 to 180	115		CN(CC(N)=O)C(=O)c1ccc2c(C3CC3)nn(-c3ncc(-c4cc(C(C)(C)O)ccc4F)cn3)c2c1 [Compound No. 55, N-(2-Amino-2-oxoethyl)-3-cyclopropyl-1-(5-(2-fluoro-5-(2-hydroxypropan-2-yl)phenyl)pyrimidin-2-yl)-N-methyl-1H-indazole-6-carboxamide]
276 to 280	105		CS(=O)(=O)c1ccc(F)c(-c2cnc(-n3nc(C4CC4)c4ccc(C(=O)N5CCOCC5)cc43)nc2)c1 [Compound No. 58, (3-Cyclopropyl-1-(5-(2-fluoro-5-(methylsulfonyl)phenyl)pyrimidin-2-yl)-1H-indazol-6-yl)(morpholino)methanone]
211 to 215	107		CC(C)(O)c1ccc(F)c(-c2cnc(-n3nc(C4CC4)c4ccc(C(=O)N5CCOCC5)cc43)nc2)c1 [Compound No. 54, (3-Cyclopropyl-1-(5-(2-fluoro-5-(2-hydroxypropan-2-yl)phenyl)pyrimidin-2-yl)-1H-indazol-6-yl)(morpholino)methanone]
256 to 260	117		CC(O)c1ccc(F)c(-c2cnc(-n3nc(C4CC4)c4ccc(C(=O)N5CCOCC5)cc43)nc2)c1 (stereo not drawn) [Compound No. 52, (3-Cyclopropyl-1-(5-(2-fluoro-5-(1-hydroxyethyl)phenyl)pyrimidin-2-yl)-1H-indazol-6-yl)(morpholino)methanone]
274 to 277	120		CN(CC(N)=O)C(=O)c1ccc2c(C3CC3)nn(-c3ncc(-c4cc([S+](C)[O-])ccc4F)cn3)c2c1 (stereo not drawn) [Compound No. 57]
155 to 158	103		CCOc1ccc(F)c(-c2cnc(-n3nc(C4CC4)c4ccc(C(=O)N5CCOCC5)cc43)nc2)c1 [Compound No. 51, (3-Cyclopropyl-1-(5-(5-ethoxy-2-fluorophenyl)pyrimidin-2-yl)-1H-indazol-6-yl)(morpholino)methanone]
218 to 222		92	O=C(c1ccc2c(C3CC3)nn(-c3ncc(-c4ccccc4)cn3)c2c1)N1CCOCC1 [Compound No. 14, (3-Cyclopropyl-1-(5-phenylpyrimidin-2-yl)-1H-indazol-6-yl)(morpholino)-methanone]
243 to 247	106		C[S+]([O-])c1ccc(F)c(-c2cnc(-n3nc(C4CC4)c4ccc(C(=O)N5CCOCC5)cc43)nc2)c1 (stereo not drawn) [Compound No. 56, (3-Cyclopropyl-1-(5-(2-fluoro-5-(methylsulfinyl)phenyl)pyrimidin-2-yl)-1H-indazol-6-yl)(morpholino)methanone]
235 to 237		102	CC(C)(O)c1nn(-c2ncc(-c3ccccc3F)cn2)c2cc(C(=O)N3CCOCC3)ccc12 [Compound No. 31]
260 to 263		96	O=C(c1ccc2c(C3CC3)nn(-c3ncc(-c4ccccn4)cn3)c2c1)N1CCOCC1 [Compound No. 30, (3-Cyclopropyl-1-(5-(pyridin-2-yl)pyrimidin-2-yl)-1H-indazol-6-yl)(morpholino)methanone]
